Results from patent US20090036384A1, “INCREASING PREGNANCY RATES” (PARNELL LABORATORIES (AUST) PTY LIMITED, priority 2005, published 2009).
Like-named read-outs stand apart in the source and are kept apart here. Each block holds one compound with its values, some of them ahead of it.

Legend:
[1] = tested on: LH; details: in vivo; cited from earlier work
[2] = tested on: LH; details: exogenous GnRH; cited from earlier work
[3] = tested on: cows; details: cited from earlier work
[4] = literature study; cited from earlier work
[5] = Progesterone solubility trials; format: physicochemical
Protocol: The purpose of the formulation studies was to establish a product vehicle that was suitable for solubilisation of a relatively high concentration of Progesterone but in which Gonadorelin would be stable. […] Low solubility of Progesterone (even in organic solvents) further limited the choice of injectable organic vehicles.
Further Solubility Trials were conducted as follows: […]

[6] = Progesterone solubility and precipitation at low temperature (2-8° C.); format: physicochemical; details: solubility study; most appropriate combination
Protocol: Since addition of acids reduced the amount of NMP available for dissolution of Progesterone, samples prepared with different acids were refrigerated at 2-8° C. to investigate progesterone solubility and the occurrence of precipitation at low temperatures. The appearance of crystals in samples prepared with formic and hydrochloric acid was obvious after several hours of refrigeration. Crystals appeared after 1-2 days in samples prepared with phosphoric acid. FTIR testing confirmed that the precipitate was crystalline progesterone, which was difficult to redissolve due to the crystalline form of the precipitate. At this stage a further search for vehicle that would provide sufficient progesterone solubility at low temperatures was conducted. […] A solubility study confirmed that the most appropriate combination was NMP+water+phosphoric acid with progesterone amount not exceeding 8-10% w/v.

[7] = tested on: cows; details: cited from earlier work; remark: listed apart in the source

SMILES: C[C@]12CC[C@@H]3c4ccc(O)cc4CC[C@H]3[C@@H]1CC[C@@H]2OC(=O)CCC1CCCC1 [ECP, Estradiol Cypionate]
time of LH surge after administration [1]: around 40 hours

SMILES: CC(C)C[C@H](NC(=O)CNC(=O)[C@H](Cc1ccc(O)cc1)NC(=O)[C@H](CO)NC(=O)[C@H](Cc1c[nH]c2ccccc12)NC(=O)[C@H](Cc1cnc[nH]1)NC(=O)[C@@H]1CCC(=O)N1)C(=O)N[C@@H](CCCNC(=N)N)C(=O)N1CCC[C@H]1C(=O)NCC(N)=O [GnRH]
duration of GnRH-induced LH surge [2]: 7 to 14 h | peak serum levels of LH [2]: 9 to 22 ng/mL | ovulation rate ([3]; 25 μg of GnRH): dramatic reduction in ovulation rates | ovulation rate ([3]; 50 μg of GnRH): identical ovulation rate to 100 μg

SMILES: CN1CCCC1=O [NMP, N-methyl-2-pyrrolidone]
pH of NMP [4]: approximately 11.5

Solubility of Progesterone ([5]; pure solvent PEG400): marginal | Solubility of Progesterone ([5]; pure solvent Propylene Glycol): marginal | Solubility of Progesterone ([5]; pure solvent Tetraglycol): marginal | progesterone amount in NMP+water+phosphoric acid [6]: 8-10 % w/v
SMILES: CC(=O)[C@H]1CC[C@H]2[C@@H]3CCC4=CC(=O)CC[C@]4(C)[C@H]3CC[C@]12C [Progesterone]
average serum progesterone levels ([7]; beef cows primed via a used CIDR implant): 1.5 ng/mL | serum Progesterone levels that provide effective biological activity ([7]; in vivo): 1-3 ng/mL | follicle size ([7]; three days of progesterone treatment): 13.7 mm
